In US12576087B2, “Aryloxypiperidine pyrazole compounds as indoleamine 2,3-dioxygenase inhibitors” (Merck Sharp & Dohme LLC, priority 2018, dated 2026):
Values belong to the molecule of their own block, whether it stands above or below them.

Target: IDO1 (Homo sapiens, UniProt P14902)
Test: IDO1 Human Whole Blood Assay
Type: cell-based
Conditions: WBLD taken as whole blood; read-out: WBLD IC50
Method: Compounds to be tested were serially diluted in ten 3-fold steps in DMSO starting from 10 mM. 3 μL of compound dilutions or DMSO alone were then dispensed from the dilution plate into a polypropylene 96-well assay plate containing 97 μL of RPMI medium using an Echo 555 acoustic liquid handler (Labcyte). LPS and IFNγ was prepared in RPMI medium to a 10× of final conc. (1000 ng/mL), final concentration is 100 ng/mL.
Human whole blood was drawn in sodium heparin coated tubes from healthy internal donors. 240 μL of blood was transferred to each of the wells of a v-bottom 96 well plate. 30 μL of compound was transferred from intermediate dilution plate, and incubated for 15 min. 30 μL from stimulants was then transferred to blood and mixed thoroughly. Plate was covered with breathable membrane and incubated at 37° C. for overnight (18 h).
On day 2, isotope labeled standard solutions of kunurenine and tryptophan was made in water at 10× concentration and 30 μL was added to the blood at 3 μM final concentration. The assay plates were centrifuged at 300×G for 10 min with no brake to separate plasma from red blood cells. 60 μL of plasma samples was removed without disturbing red blood cells. Plasma was diluted with RPMI in 1:1 ratio and proteins were precipitated out with two volumes of Acetonitrile. The plates were centrifuged at 4000×G for 60 min. 20 μL of supernatant was carefully transferred to a 384 well plate containing 40 μL of 0.1% formic acid in water and analyzed by LC/MS/MS.
LC/MS/MS analyses were performed using Thermo Fisher's LX4-TSQ Quantum Ultra system. This system consists of four Agilent binary high-performance liquid chromatography (HPLC) pumps and a TSQ Quantum Ultra triple quadrupole MS/MS instrument. For each sample, 5 μL were injected onto an Atlantis T3 column (2.1 mm×150 mm, 3 μm particle size) from Waters. The mobile phase gradient pumped at 0.8 mL/min was used to elute the analytes from the column at 25° C. The elution started at 0% B increasing linearly to 25% B at 6.5 min, holding at 25% for 1 min, re-equilibrating to 10 min. Mobile phase A consisted of 0.1% formic acid in water. Mobile phase B consisted of 0.1% of formic acid in acetonitrile. Data were acquired in positive mode using a HESI interface. The operational parameters for the TSQ Quantum Ultra instrument were a spray voltage of 4000 V, capillary temperature of 380° C., vaporizer temperature 400° C., shealth gas 60 arbitrary units, Aux gas 20 arbitrary units, tube lens 85 and collision gas 1.2 mTorr. SRM chromatograms of kynurenine (Q1: 209.2>Q3:94.0) and internal standard (Q1: 215.3>Q3:98.2) were collected for 90 sec. The peak area was integrated by Xcalibur Quan software. The ratios between the kynurenine generated in the reaction and 2D6-Kynurenine spiked-in internal standard were used to generate percentage inhibition and IC50 values. Compounds were titrated and IC50's were calculated by 4 parameter sigmoidal curve fitting formula.

Chain of IDO1 (P14902 whole entry): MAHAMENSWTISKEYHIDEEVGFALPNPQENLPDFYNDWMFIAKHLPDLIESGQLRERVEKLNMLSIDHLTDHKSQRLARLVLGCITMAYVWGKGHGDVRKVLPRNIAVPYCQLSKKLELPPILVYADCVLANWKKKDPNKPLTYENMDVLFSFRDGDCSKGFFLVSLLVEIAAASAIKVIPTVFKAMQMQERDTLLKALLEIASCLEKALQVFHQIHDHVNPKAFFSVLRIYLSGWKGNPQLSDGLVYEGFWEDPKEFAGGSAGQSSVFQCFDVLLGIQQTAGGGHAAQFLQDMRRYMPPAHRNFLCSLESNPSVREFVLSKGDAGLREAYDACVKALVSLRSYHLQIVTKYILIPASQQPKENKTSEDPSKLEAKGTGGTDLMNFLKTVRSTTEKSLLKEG

IC50: 85.9 nM
SMILES: Cc1ccccc1OC1CCN(C(=O)Cn2nc(C(=O)N3CCC(O)CC3)c3c2CCC3)CC1 [Example 33, 2-(3-(4-hydroxypiperidine-1-carbonyl)-5,6-dihydrocyclopenta[c]pyrazol-1(4H)-yl)-1-(4-(o-tolyloxy)piperidin-1-yl)ethanone]

IC50: 59.8 nM
SMILES: Cc1cc(F)ccc1OC1CCN(C(=O)Cn2nc(C(=O)N3CCC(OCCO)CC3)c3c2CCCC3)CC1 [Example 76, 1-[4-(4-fluoro-2-methyl-phenoxy)-1-piperidyl]-2-[3-[4-(2-hydroxyethoxy)piperidine-1-carbonyl]-4,5,6,7-tetrahydroindazol-1-yl]ethanone]

IC50: 19.7 nM
SMILES: Cc1cc(F)ccc1OC1CCN(C(=O)Cn2nc(C(=O)N3CCC(F)(CO)CC3)c3c2CCCC3)CC1 [Example 78, 2-[3-[4-fluoro-4-(hydroxymethyl)piperidine-1-carbonyl]-4,5,6,7-tetrahydroindazol-1-yl]-1-[4-(4-fluoro-2-methyl-phenoxy)-1-piperidyl]ethanone]

IC50: 140 nM
SMILES: Cc1cc(F)ccc1OC1CCN(C(=O)Cn2nc(C(=O)N3CCN(C(=O)CO)CC3)c3c2CCCC3)CC1 [Example 79, 1-[4-(4-fluoro-2-methyl-phenoxy)-1-piperidyl]-2-[3-[4-(2-hydroxyacetyl)piperazine-1-carbonyl]-4,5,6,7-tetrahydroindazol-1-yl]ethanone]

IC50: 259 nM
SMILES: Cc1cc(F)ccc1OC1CCN(C(=O)Cn2nc(C(=O)N3CCC(F)(CO)CC3)c3c2CCC3)CC1 [Example 80, 2-[3-[4-fluoro-4-(hydroxymethyl)piperidine-1-carbonyl]-5,6-dihydro-4H-cyclopenta[c]pyrazol-1-yl]-1-[4-(4-fluoro-2-methyl-phenoxy)-1-piperidyl]ethanone]

IC50: 89.8 nM
SMILES: Cc1cc(F)ccc1OC1CCN(C(=O)Cn2nc(C(=O)N3CCO[C@H](CO)C3)c3c2CCCC3)CC1 [Example 81, 1-[4-(4-fluoro-2-methyl-phenoxy)-1-piperidyl]-2-[3-[(2S)-2-(hydroxymethyl)morpholine-4-carbonyl]-4,5,6,7-tetrahydroindazol-1-yl]ethanone]

Further lines, the molecule ahead of its results:

SMILES: Cc1ccccc1OC1CCN(C(=O)Cn2nc(C(=O)N3CCC(O)(CF)CC3)c3c2CCC3)CC1 [Example 35, 2-(3-(4-(fluoromethyl)-4-hydroxypiperidine-1-carbonyl)-5,6-dihydrocyclopenta[c]pyrazol-1(4H)-yl)-1-(4-(o-tolyloxy)piperidin-1-yl)ethanone]
IC50: 140 nM

SMILES: Cc1ccccc1OC1CCN(C(=O)Cn2nc(C(=O)N3CC[C@@H](O)[C@@H](F)C3)c3c2CCCC3)CC1 [Example 36, 2-(3-((3S,4R)-3-fluoro-4-hydroxypiperidine-1-carbonyl)-4,5,6,7-tetrahydro-1H-indazol-1-yl)-1-(4-(o-tolyloxy)piperidin-1-yl)ethanone]
IC50: 108 nM

SMILES: Cc1ccccc1OC1CCN(C(=O)Cn2nc(C(=O)N3CCN(C(=O)CO)CC3)c3c2CCCC3)CC1 [Example 38, 2-hydroxy-1-(4-(1-(2-oxo-2-(4-(o-tolyloxy)piperidin-1-yl)ethyl)-4,5,6,7-tetrahydro-1H-indazole-3-carbonyl)piperazin-1-yl)ethanone]
IC50: 33 nM

SMILES: Cc1ccccc1OC1CCN(C(=O)Cn2nc(C(=O)N3CC[C@@H](O)[C@@H](F)C3)c3c2CCC3)CC1 [Example 40, 2-(3-((3S,4R)-3-fluoro-4-hydroxypiperidine-1-carbonyl)-5,6-dihydrocyclopenta[c]pyrazol-1(4H)-yl)-1-(4-(o-tolyloxy)piperidin-1-yl)ethanone]
IC50: 107 nM

SMILES: C[C@@H]1C[C@H](Oc2ccccc2Cl)CCN1C(=O)Cn1nc(C(=O)N2CC[C@@H](O)[C@@H](F)C2)c2c1C[C@H]1C[C@@H]21 [Example 52, 1-((2R,4R)-4-(2-chlorophenoxy)-2-methylpiperidin-1-yl)-2-((3bR,4aR)-3-((3S,4R)-3-fluoro-4-hydroxypiperidine-1-carbonyl)-3b,4,4a,5-tetrahydro-1H-cyclopropa[3,4]cyclopenta[1,2-c]pyrazol-1-yl)ethanone]
IC50: 101 nM
